Results taken from patent publication US11413291B2, “Pesticidally active heterocyclic derivatives with sulfur containing substituents” (SYNGENTA PARTICIPATIONS AG, priority 2017, dated 2022).

Columns and labels:
Assay type in all cases: in vivo
Spodoptera littoralis = assay: Example B1: Spodoptera littoralis, sprayed cotton leaf discs; details: foliar, 72 h, application rate 200 ppm, L1 larvae, 3 days after infestation
Description: Cotton leaf discs were placed onto agar in 24-well microtiter plates and sprayed with aqueous test solutions prepared from 10′000 ppm DMSO stock solutions. After drying the leaf discs were infested with five L1 larvae. The samples were assessed for mortality, anti-feeding effect, and growth inhibition in comparison to untreated samples 3 days after infestation. Control of Spodoptera littoralis by a test sample is given when at least one of the categories mortality, anti-feedant effect, and growth inhibition is higher than the untreated sample.

Plutella xylostella = assay: Example B3: Plutella xylostella, artificial diet; details: 120 h, application rate 200 ppm, L2 larvae, 5 days after infestation, read-out: effect in at least one of the two categories (mortality or growth inhibition)
Description: (§1) 24-well microtiter plates with artificial diet were treated with aqueous test solutions prepared from 10,000 ppm DMSO stock solutions by pipetting. After drying, the plates were infested with L2 larvae (10 to 15 per well). The samples were assessed for mortality and growth inhibition in comparison to untreated samples 5 days after infestation.

Diabrotica balteata = assay: Example B4: Diabrotica balteata, sprayed maize sprouts; details: 96 h, application rate 200 ppm, L2 larvae, 4 days after infestation, read-out: effect in at least one of the two categories (mortality or growth inhibition)
Description: as §1, with “Maize sprouts placed onto an agar layer in 24-well” for “24-well”, “plates” for “plates with artificial diet”, “spraying.” for “pipetting.”, “(6” for “(10”, “10” for “15”, “4” for “5”

Myzus persicae [1] = assay: Example B5: Myzus persicae feeding/contact, sprayed sunflower leaf discs; details: foliar; for mortality at 200 ppm: Myzus persicae, 144 h, application rate 200 ppm, mixed ages, 6 days after infestation; for mortality at 12.5 ppm: Myzus persicae (B5), concentration 12.5 ppm
Description: Sunflower leaf discs were placed onto agar in a 24-well microtiter plate and sprayed with aqueous test solutions prepared from 10,000 ppm DMSO stock solutions. After drying, the leaf discs were infested with an aphid population of mixed ages. The samples were assessed for mortality 6 days after infestation.

Myzus persicae [2] = assay: Example B6: Myzus persicae systemic, pea seedling roots in test solution; details: for mortality at 6 ppm: Myzus persicae (B6), concentration 6 ppm; for mortality at 24 ppm: Myzus persicae, 144 h, test rate 24 ppm, mixed ages, 6 days
Description: Roots of pea seedlings infested with an aphid population of mixed ages were placed directly into aqueous test solutions prepared from 10,000 DMSO stock solutions. The samples were assessed for mortality 6 days after placing seedlings into test solutions.

Bemisia tabaci = assay: Example B7: Bemisia tabaci, sprayed cotton leaf discs; details: foliar, 144 h, application rate 200 ppm, adult white flies, 6 days after incubation
Description: Cotton leaf discs were placed on agar in 24-well microtiter plates and sprayed with aqueous test solutions prepared from 10,000 ppm DMSO stock solutions. After drying the leaf discs were infested with adult white flies. The samples were checked for mortality 6 days after incubation.

Euschistus heros = assay: Example B8: Euschistus heros, sprayed soybean leaves; details: for mortality at 0.8 ppm: Euschistus heros (B8), concentration 0.8 ppm; for percent effect (mortality or growth inhibition) at 200 ppm: Euschistus heros, 120 h, application rate 200 ppm, N2 nymphs, 5 days after infestation, read-out: effect in at least one of the two categories (mortality or growth inhibition)
Description: Soybean leaves on agar in 24-well microtiter plates were sprayed with aqueous test solutions prepared from 10,000 ppm DMSO stock solutions. After drying the leaves were infested with N2 nymphs. The samples were assessed for mortality and growth inhibition in comparison to untreated samples 5 days after infestation.

Tetranychus urticae = assay: Example B10: Tetranychus urticae, sprayed bean leaf discs; details: foliar, 192 h, application rate 200 ppm, mixed population (mobile stages), 8 days after infestation
Description: Bean leaf discs on agar in 24-well microtiter plates were sprayed with aqueous test solutions prepared from 10,000 ppm DMSO stock solutions. After drying the leaf discs were infested with a mite population of mixed ages. The samples were assessed for mortality on mixed population (mobile stages) 8 days after infestation.

[3] = tested on: Frankliniella occidentalis; assay: Example B11: Frankliniella occidentalis, sprayed sunflower leaf discs; details: foliar, 168 h, application rate 200 ppm, mixed ages, 7 days after infestation
Description: Sunflower leaf discs were placed on agar in 24-well microtiter plates and sprayed with aqueous test solutions prepared from 10,000 DMSO stock solutions. After drying the leaf discs were infested with a Frankliniella population of mixed ages. The samples were assessed for mortality 7 days after infestation.

Row | Structure (SMILES) | percent control (mortality, anti-feedant effect or growth inhibition) at 200 ppm (Spodoptera littoralis) | percent effect (mortality or growth inhibition) at 200 ppm (Plutella xylostella) | percent effect (mortality or growth inhibition) at 200 ppm (Diabrotica balteata) | mortality at 200 ppm (Myzus persicae [1]) | mortality at 12.5 ppm (Myzus persicae [1]) | mortality at 6 ppm (Myzus persicae [2]) | mortality at 24 ppm (Myzus persicae [2]) | mortality at 200 ppm (Bemisia tabaci) | mortality at 0.8 ppm (Euschistus heros) | percent effect (mortality or growth inhibition) at 200 ppm (Euschistus heros) | mortality at 200 ppm (Tetranychus urticae) | mortality at 200 ppm [3]
1 | CCS(=O)(=O)c1cc(C(C)(C)C#N)cnc1-c1cn2cnc(C(F)(F)F)cc2n1 [Compound P1, 2-[5-ethylsulfonyl-6-[7-(trifluoromethyl)imidazo[1,2-c]pyrimidin-2-yl]-3-pyridyl]-2-methyl-propanenitrile] | ≥ 80% | ≥ 80% | ≥ 80% | ≥ 80% | 100% | 100% | ≥ 80% | ≥ 80% | 100% | ≥ 80% | ≥ 80% | 
2 | CCS(=O)(=O)c1cc(C(C)(C)C#N)cnc1-n1cc2cnc(C(F)(F)F)cc2n1 [Compound P2, 2-[5-ethylsulfonyl-6-[6-(trifluoromethyl)pyrazolo[4,3-c]pyridin-2-yl]-3-pyridyl]-2-methyl-propanenitrile] | ≥ 80% | ≥ 80% | ≥ 80% | ≥ 80% |  |  |  | ≥ 80% |  | ≥ 80% |  | 
3 | CCS(=O)(=O)c1cc(C(C)(C)C#N)cnc1-c1cn2ccc(SC(F)F)cc2n1 [Compound P5, 2-[6-[7-(difluoromethylsulfanyl)imidazo[1,2-a]pyridin-2-yl]-5-ethylsulfonyl-3-pyridyl]-2-methyl-propanenitrile] | ≥ 80% |  | ≥ 80% | ≥ 80% |  |  |  | ≥ 80% |  |  |  | 
4 | CCS(=O)(=O)c1cc(C(C)(C)C#N)cnc1-c1cn2ccc(SC(F)(F)F)cc2n1 [Compound P7, 2-[5-ethylsulfonyl-6-[7-(trifluoromethylsulfanyl)imidazo[1,2-a]pyridin-2-yl]-3-pyridyl]-2-methyl-propanenitrile] | ≥ 80% | ≥ 80% | ≥ 80% | ≥ 80% |  |  |  | ≥ 80% |  |  |  | ≥ 80%
5 | CCS(=O)(=O)c1cc(C(C)(C)C#N)cnc1-c1cn2ncc(C(F)(F)F)cc2n1 [Compound P8, 2-[5-ethylsulfonyl-6-[7-(trifluoromethyl)imidazo[1,2-b]pyridazin-2-yl]-3-pyridyl]-2-methyl-propanenitrile] | ≥ 80% | ≥ 80% | ≥ 80% | ≥ 80% |  |  | ≥ 80% | ≥ 80% |  | ≥ 80% |  | 
6 | CCS(=O)(=O)c1cc(C(C)(C)C#N)cnc1-c1cn2ccc(C(F)(F)F)cc2n1 [Compound P9, 2-[5-ethylsulfonyl-6-[7-(trifluoromethyl)imidazo[1,2-a]pyridin-2-yl]-3-pyridyl]-2-methyl-propanenitrile] | ≥ 80% | ≥ 80% | ≥ 80% | ≥ 80% |  |  |  |  |  |  | ≥ 80% | 
7 | CCSc1cc(C(C)(C)C#N)cnc1-c1nc2cc(C(F)(F)F)n(CC(F)(F)F)c(=O)c2n1C [Compound P10, 2-[5-ethylsulfanyl-6-[3-methyl-4-oxo-5-(2,2,2-trifluoroethyl)-6-(trifluoromethyl)imidazo[4,5-c]pyridin-2-yl]-3-pyridyl]-2-methyl-propanenitrile] |  | ≥ 80% | ≥ 80% | ≥ 80% |  |  |  | ≥ 80% |  |  |  | 
8 | CCn1c(C(F)(F)F)cc2nc(-c3ccc(C(C)(C)C#N)cc3S(=O)(=O)CC)n(C)c2c1=O [Compound P13, 2-[4-[5-ethyl-3-methyl-4-oxo-6-(trifluoromethyl)imidazo[4,5-c]pyridin-2-yl]-3-ethylsulfonyl-phenyl]-2-methyl-propanenitrile] | ≥ 80% | ≥ 80% | ≥ 80% |  |  |  |  | ≥ 80% |  |  |  | 
9 | CCS(=O)(=O)c1cc(C(C)(C)C#N)cnc1-c1cn2cnc(SC(F)F)cc2n1 [Compound P14, 2-[6-[7-(difluoromethylsulfanyl)imidazo[1,2-c]pyrimidin-2-yl]-5-ethylsulfonyl-3-pyridyl]-2-methyl-propanenitrile] | ≥ 80% | ≥ 80% | ≥ 80% | ≥ 80% |  |  |  | ≥ 80% |  | ≥ 80% |  | 
10 | CCS(=O)(=O)c1cc(C(C)(C)C#N)cnc1-c1cn2cnc(S(=O)(=O)C(F)F)cc2n1 [Compound P15, 2-[6-[7-(difluoromethylsulfonyl)imidazo[1,2-c]pyrimidin-2-yl]-5-ethylsulfonyl-3-pyridyl]-2-methyl-propanenitrile] |  | ≥ 80% |  | ≥ 80% |  |  | ≥ 80% |  |  |  |  | 
11 | CCS(=O)(=O)c1cc(C(C)(C)C#N)cnc1-c1cn2cnc([S+]([O-])C(F)F)cc2n1 (stereo not drawn) [Compound P16, 2-[6-[7-(difluoromethylsulfinyl)imidazo[1,2-c]pyrimidin-2-yl]-5-ethylsulfonyl-3-pyridyl]-2-methyl-propanenitrile] |  | ≥ 80% |  | ≥ 80% |  |  | ≥ 80% |  |  |  |  | 
12 | CCSc1cc(C(C)(C)C#N)cnc1-c1nc2cc(C(F)(F)F)n(C3CC3)c(=O)c2n1C [Compound P18, 2-[6-[5-cyclopropyl-3-methyl-4-oxo-6-(trifluoromethyl)imidazo[4,5-c]pyridin-2-yl]-5-ethylsulfanyl-3-pyridyl]-2-methyl-propanenitrile] | ≥ 80% | ≥ 80% | ≥ 80% | ≥ 80% |  |  |  |  |  |  | ≥ 80% | 
13 | CCS(=O)(=O)c1cc(C(C)(C)C#N)ccc1-c1cn2ccc(C(F)(F)F)cc2n1 [Compound P19, 2-[3-ethylsulfonyl-4-[7-(trifluoromethyl)imidazo[1,2-a]pyridin-2-yl]phenyl]-2-methyl-propanenitrile] | ≥ 80% | ≥ 80% | ≥ 80% |  |  |  |  | ≥ 80% |  |  |  | 
14 | CCS(=O)(=O)c1cc(C(C)(C)C#N)ccc1-c1cn2cnc(C(F)(F)F)cc2n1 [Compound P20, 2-[3-ethylsulfonyl-4-[7-(trifluoromethyl)imidazo[1,2-c]pyrimidin-2-yl]phenyl]-2-methyl-propanenitrile] |  | ≥ 80% | ≥ 80% | ≥ 80% |  |  |  | ≥ 80% |  |  |  | 
15 | CCS(=O)(=O)c1cc(C2(C#N)CC2)cnc1-c1cn2cnc(C(F)(F)F)cc2n1 [reference compound] |  |  |  |  | 0% | 0% |  |  | 0% |  |  | 
